Measurements published in patent publication EP3002286B1, “PREPARATION METHOD FOR POLYMORPHIC 6-(4-CHLOROPHENOXY)-TETRAZOLO[5,1-A]PHTHALAZINE AND USE THEREOF” (Jilin Yinglian Shangde Science and Technology Development …, priority 2014, dated 2015).

How the values were obtained:
[1] = test system: maximal electroshock seizure; assay: Maximal electroshock (MES) test; format: in vivo; details: mice; for ED50: Mus musculus, po; for ED50 / ED50, MES: p.o (intragastrically, i.g.), effect against electroshock seizure
Experimental: Maximal electroshock (MES) test is an ideal animal model for evaluating a compound having a potential anti-epileptic effect, and if the compound can be applied against the maximal electroshock seizure, then it is likely to be further developed as a drug for treatment of grand mal clinically. Each of the four crystalline forms of this invention was intragastrically (i.g.) administered to mice respectively, each median effective dose (ED50) for the effect against electroshock seizure was measured, and each anti-convulsion effect was assessed. Table 3 Comparison of the pharmacological effect of the anti-convulsion of the crystalline forms (mg/kg, p.o)

[2] = Comparison of solubility of the crystalline forms in water (UV absorbance of saturated solution); format: physicochemical; details: for Absorbance (Abs): saturated water solution (10mg in 1ml of water, stirred 1 hour, filtered), diluted 10 times, ultraviolet spectrophotometer; for Solubility relationship with respect to Form A: water, concentration ratio from absorbance according to the Lambert-Beer law
Experimental: 10mg of 6-(4-chlorophenoxy)-tetrazolo[5,1-a]phthalazine in each of the four crystalline forms was dissolved into 1ml of water, respectively, and the mixture was stirred for 1 hour so as to reach a solubility equilibrium with a supersaturated state being kept, and then the resultant mixture was filtered to give a clear and saturated water solution for each of the crystalline forms, respectively. Then, each solution was diluted 10 times, and absorbance thereof was measured using a ultraviolet spectrophotometer, and then the concentration ratio of 6-(4-chlorophenoxy)-tetrazolo[5,1-a]phthalazine in each solution could be determined according to the Lambert-Beer law, so as to obtain the solubility relationship among the four crystalline forms (see Table 2 for results). Table 2 Comparison of solubility of the crystalline forms

[3] = Stability of the crystalline forms (suspension balance), product form decided by XRPD; format: physicochemical; details: suspension time 2 days
Experimental: 20mg of crystalline form A and 20mg of crystalline form B were mixed, then placed into 1ml of methanol as a solvent, followed by mixing the resultant suspension with a magnetic stirrer at a rotational speed of 100 rpm for two days. And then, the suspension was filtered, and the product obtained was washed with a small amount of methanol, followed by drying at room temperature to give a solid, which was analyzed with XRPD to decide the crystalline form of the product. Other sample mixtures were also shown in Table 1 (see Table 1 for results). Table 1 Comparison of the stability of the crystalline forms (suspension balance)

Row | Structure (SMILES) | Absorbance (Abs) [2] [Abs] | ED50, MES [1] [mg/kg] | Solubility relationship with respect to Form A [2] [times] | further results
1 | NC(=O)N1c2ccccc2C=Cc2ccccc21 [Carbamazepine, reference compound] |  |  |  | ED50 [1]: 15.4 mg/kg
2 | Clc1ccc(Oc2nn3nnnc3c3ccccc23)cc1 [Crystalline form A, 6-(4-chlorophenoxy)-tetrazolo[5,1-a]phthalazine] | 0.0407 |  |  | ED50 [1]: 15.6 mg/kg
3 | Clc1ccc(Oc2nn3nnnc3c3ccccc23)cc1 [Crystalline form B, 6-(4-chlorophenoxy)-tetrazolo[5,1-a]phthalazine] | 0.279 | 9.2 | 6.8 | 
4 | Clc1ccc(Oc2nn3nnnc3c3ccccc23)cc1 [Crystalline form C, 6-(4-chlorophenoxy)-tetrazolo[5,1-a]phthalazine] | 0.326 | 8.5 | 8.0 | anti-convulsion effect (in words) ([1]; comparison among the crystalline forms, intragastrically administered): strongest anti-convulsion effect; water solubility (in words) ([2]; comparison among the crystalline forms): best water solubility
5 | Clc1ccc(Oc2nn3nnnc3c3ccccc23)cc1 [Crystalline form D, 6-(4-chlorophenoxy)-tetrazolo[5,1-a]phthalazine] | 0.134 | 12.7 | 3.3 | 
6 | Clc1ccc(Oc2nn3nnnc3c3ccccc23)cc1 [Form A + Form B, 6-(4-chlorophenoxy)-tetrazolo[5,1-a]phthalazine] |  |  |  | Crystalline form of the product ([3]; solvent for suspension Methanol): Form A
7 | Clc1ccc(Oc2nn3nnnc3c3ccccc23)cc1 [Form A + Form C, 6-(4-chlorophenoxy)-tetrazolo[5,1-a]phthalazine] |  |  |  | Crystalline form of the product ([3]; solvent for suspension Methyl ethyl ketone): Form A
8 | Clc1ccc(Oc2nn3nnnc3c3ccccc23)cc1 [Form A + Form D, 6-(4-chlorophenoxy)-tetrazolo[5,1-a]phthalazine] |  |  |  | Crystalline form of the product ([3]; solvent for suspension Nitromethane + n-hexane): Form A
